EC50 data for 27 molecules are collected here from patent US10508104B2, “6-hydroxy-5-(phenyl/heteroarylsulfonyl)pyrimidin-4(1H)-one as APJ agonists” (Bristol-Myers Squibb Company, priority 2016, dated 2019).

For one experiment, the target named is human APJ receptor (Homo sapiens (Human), UniProt P35414). Description: Intracellular cAMP accumulation assay (APJ hcAMP, HTRF). The conditions noted are these: HEK293 cells stably expressing human APJ receptor; inhibition of forskolin-mediated cAMP production; read-out: Human APJ cAMP EC50 Potency range. The format is cell-based. The gist of the method: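 HEK293 cells stably expressing human APJ, 5,000 per well, incubated 30 min at rt with compound, […] and 2 μM forskolin. cAMP measured by HTRF against a cAMP standard curve as inhibition of forskolin-driven production. EC50 from variable-slope sigmoidal fit.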
Chain of human APJ receptor (P35414 whole entry): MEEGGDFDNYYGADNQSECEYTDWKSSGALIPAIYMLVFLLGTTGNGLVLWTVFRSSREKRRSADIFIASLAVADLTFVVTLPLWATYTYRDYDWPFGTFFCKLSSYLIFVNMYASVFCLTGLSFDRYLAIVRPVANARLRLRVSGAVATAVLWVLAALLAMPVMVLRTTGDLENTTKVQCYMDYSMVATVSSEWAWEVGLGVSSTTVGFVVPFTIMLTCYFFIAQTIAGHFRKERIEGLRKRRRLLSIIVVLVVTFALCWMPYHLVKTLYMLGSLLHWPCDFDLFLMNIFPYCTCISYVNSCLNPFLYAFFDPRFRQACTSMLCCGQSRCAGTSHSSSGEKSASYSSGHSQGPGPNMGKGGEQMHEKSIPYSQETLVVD
Turning to `Cn1cccc(-c2ccc(S(=O)(=O)c3c(O)n([C@H](c4cccc(C#N)c4)C4CC4)c(CC4CC4)nc3=O)cc2)c1=O` [Example 490, 3-[(S)-cyclopropyl[2-(cyclopropylmethyl)-6-hydroxy-5-[4-(1-methyl-2-oxo-1,2-dihydropyridin-3-yl)benzenesulfonyl]-4-oxo-1,4-dihydropyrimidin-1-yl]methyl]benzonitrile], the EC50 lay in the range of 0.01 to 10 nM.

Turning to `CCOCc1nc(=O)c(S(=O)(=O)c2ccc(-c3ccnc(F)c3C)c(F)c2)c(O)n1C(COC)c1cccc(F)c1` (stereo not drawn) [Example 374, 2-(ethoxymethyl)-5-[3-fluoro-4-(2-fluoro-3-methylpyridin-4-yl)benzenesulfonyl]-1-[1-(3-fluorophenyl)-2-methoxyethyl]-6-hydroxy-1,4-dihydropyrimidin-4-one], the half-maximal effective concentration (EC50) lay in the range of 0.01 to 10 nM.

`CCCCc1nc(=O)c(S(=O)(=O)c2ccc(-c3ccnc(F)c3C)cc2)c(O)n1[C@@H](CC)c1ccc(C#N)c(F)c1` [Example 517, 4-[(1S)-1-{2-butyl-5-[4-(2-fluoro-3-methylpyridin-4-yl)benzenesulfonyl]-6-hydroxy-4-oxo-1,4-dihydropyrimidin-1-yl}propyl]-2-fluorobenzonitrile]: the EC50 was in the range of 0.01 to 10 nM.

For `COC[C@@H](c1cc(F)cc(F)c1)n1c(COC(C)C)nc(=O)c(S(=O)(=O)c2ccc(-c3cn(C)nc3C)cc2)c1O` [Example 396, 1-[(1R)-1-(3,5-difluorophenyl)-2-methoxyethyl]-5-[4-(1,3-dimethyl-1H-pyrazol-4-yl)benzenesulfonyl]-6-hydroxy-2-[(propan-2-yloxy)methyl]-1,4-dihydropyrimidin-4-one], the EC50 lay within 0.01 to 10 nM.

As to `CCCCc1nc(=O)c(S(=O)(=O)c2ccc(C(=O)O)cc2)c(O)n1-c1c(OC)cccc1OC` [Example 89, 4-((2-Butyl-1-(2,6-dimethoxyphenyl)-6-hydroxy-4-oxo-1,4-dihydropyrimidin-5-yl)sulfonyl)benzoic Acid], the EC50 is 0.01 to 10 nM.

Take `CCCCc1nc(=O)c(S(=O)(=O)c2ccc(-c3ccccc3C)cc2)c(O)n1[C@@H](CC)c1cccc(C#N)c1` [Example 491, 3-[(1S)-1-[2-butyl-6-hydroxy-5-({2′-methyl-[1,1′-biphenyl]-4-yl}sulfonyl)-4-oxo-1,4-dihydropyrimidin-1-yl]propyl]benzonitrile]: the EC50 was 0.01 to 10 nM.

For `CCCCc1nc(=O)c(S(=O)(=O)c2ccc(-c3cccc(C(C)(C)O)c3)cc2)c(O)n1[C@@H](CC)c1cccc(C#N)c1` [Example 531, 3-[(1S)-1-(2-buty1-6-hydroxy-5-{[3′-(2-hydroxypropan-2-yl)-[1,1′-biphenyl]-4-yl]sulfonyl}-4-oxo-1,4-dihydropyrimidin-1-yl)propyl]benzonitrile], the EC50 lay within 10 to 100 nM.

Consider `CCCCc1nc(=O)c(S(=O)(=O)c2ccc(-c3ccnc(F)c3C)cc2)c(O)n1[C@H]1CCc2c(C#N)cccc21` [Example 537, (1S)-1-{2-butyl-5-[4-(2-fluoro-3-methylpyridin-4-yl)benzenesulfonyl]-6-hydroxy-4-oxo-1,4-dihydropyrimidin-1-yl}-2,3-dihydro-1H-indene-4-carbonitrile], for which the EC50 is 0.01 to 10 nM.

Take `CCOCc1nc(=O)c(S(=O)(=O)c2ccc(-c3ccc(F)nc3C)cc2)c(O)n1[C@@H](CC)c1cccc(C#N)c1` [Example 436, 3-[(1S)-1-[2-(ethoxymethyl)-5-[4-(6-fluoro-2-methylpyridin-3-yI)benzenesulfonyl]-6-hydroxy-4-oxo-1,4-dihydropyrimidin-1-yl]propyl]benzonitrile]: the EC50 fell in the range of 0.01 to 10 nM.

On to `CCCCc1nc(=O)c(S(=O)(=O)[C@H]2CC[C@H](O)CC2)c(O)n1-c1c(CC)cccc1CC` [Example 553, 2-butyl-1-(2,6-diethylphenyl)-6-hydroxy-5-{[(1r,4r)-4-hydroxycyclohexyl]sulfonyl}-1,4-dihydropyrimidin-4-one], for which the EC50 lay in the range of 0.01 to 10 nM.

The experiment is the same for the next values; noted with them: human APJ, cAMP accumulation; read-out: Human APJ cAMP EC50 Potency range.
As for `CCOCc1nc(=O)c(S(=O)(=O)c2ccc(-c3ccnc(F)c3C)c(F)c2)c(O)n1[C@@H](COC)c1ccccc1` [Example 338, 2-(ethoxymethyl)-5-[3-fluoro-4-(2-fluoro-3-methylpyridin-4-yl)benzenesulfonyl]-6-hydroxy-1-[(1R)-2-methoxy-1-phenylethyl]-1,4-dihydropyrimidin-4-one], the EC50 was 0.01 to 10 nM.

With `CCCCc1nc(=O)c(S(=O)(=O)c2ccc(-c3ccc(F)nc3C)cc2)c(O)n1[C@@H](C)c1ccc(OC)cc1` [Example 233, 2-butyl-5-[4-(6-fluoro-2-methylpyridin-3-yl)benzenesulfonyl]-6-hydroxy-1-[(1S)-1-(4-methoxyphenyl)ethyl]-1,4-dihydropyrimidin-4-one], the EC50 fell in the range of 0.01 to 10 nM.

For the molecule `CCOCc1nc(=O)c(S(=O)(=O)c2ccc(-c3ccncc3C)cc2)c(O)n1[C@H]1CCc2ccccc21` [Example 323, 1-[(1S)-2,3-dihydro-1H-inden-1-yl]-2-(ethoxymethyl)-6-hydroxy-5-[4-(3-methylpyridin-4-yl)benzenesulfonyl]-1,4-dihydropyrimidin-4-one], the EC50 lay in the range of 0.01 to 10 nM.

`CCOCc1nc(=O)c(S(=O)(=O)c2ccc(-c3ccncc3C)c(F)c2)c(O)n1[C@@H](COC)c1cccc(C#N)c1` [Example 345, 3-[(1R)-1-[2-(ethoxymethyl)-5-[3-fluoro-4-(3-methylpyridin-4-yl)benzenesulfonyl]-6-hydroxy-4-oxo-1,4-dihydropyrimidin-1-yl]-2-methoxyethyl] benzonitrile]: the EC50 fell in the range of 0.01 to 10 nM.

On to `COC[C@@H](c1ccccc1)n1c(C2CCCO2)nc(=O)c(S(=O)(=O)c2ccc(-c3ccc(F)nc3C)cc2)c1O` (single isomer, unassigned) [Example 357], for which the EC50 is 0.01 to 10 nM.

On to `CCCCc1nc(O)c(S(=O)(=O)c2ccc(Br)cc2)c(=O)n1[C@H](CC)c1cccc2c1OCO2` [Example 254, 3-[(1R)-1-(2H-1,3-benzodioxol-4-yl)propyl]-5-(4-bromobenzenesulfonyl)-2-butyl-6-hydroxy-3,4-dihydropyrimidin-4-one], for which the EC50 was 10 to 100 nM.

As to `CCCCc1nc(=O)c(S(=O)(=O)c2ccc(-c3cncc(F)c3)cc2)c(O)n1[C@H](CC)c1cccc2c1OCO2` [Example 255, 1-[(1R)-1-(2H-1,3-benzodioxol-4-yl)propyl]-2-butyl-5-[4-(5-fluoropyridin-3-yl)benzenesulfonyl]-6-hydroxy-1,4-dihydropyrimidin-4-one], the EC50 is 0.01 to 10 nM.

On to `CCCCc1nc(=O)c(S(=O)(=O)c2ccc(-c3cccnc3C)cc2)c(O)n1[C@H](CC)c1cccc2c1OCO2` [Example 260, 1-[(1R)-1-(2H-1,3-benzodioxol-4-yl)propyl]-2-butyl-6-hydroxy-5-[4-(2-methylpyridin-3-yl)benzenesulfonyl]-1,4-dihydropyrimidin-4-one], for which the EC50 lay in the range of 0.01 to 10 nM.

Turning to `COC[C@@H](c1ccccc1)n1c(COC(C)C)nc(=O)c(S(=O)(=O)c2ccc(-c3ccncc3C)c(F)c2)c1O` [Example 336, 5-[3-fluoro-4-(3-methylpyridin-4-yl)benzenesulfonyl]-6-hydroxy-1-[(1R)-2-methoxy-1-phenylethyl]-2-[(propan-2-yloxy)methyl]-1,4-dihydropyrimidin-4-one], the EC50 was in the range of 0.01 to 10 nM.

With `CCCCc1nc(=O)c(S(=O)(=O)c2ccc(-c3cncc(F)c3)cc2)c(O)n1[C@@H](CC)c1cccc(C#N)c1` [Example 225, 3-[(1S)-1-{2-butyl-5-[4-(5-fluoropyridin-3-yl)benzenesulfonyl]-6-hydroxy-4-oxo-1,4-dihydropyrimidin-1-yl}propyl]benzonitrile], the EC50 lay within 0.01 to 10 nM.

Regarding `Cc1c(-c2ccc(S(=O)(=O)c3c(O)n([C@H]4CCc5ccccc54)c(COC(C)C)nc3=O)cc2)ccnc1F` [Example 331, 1-[(1S)-2,3-dihydro-1H-inden-1-yl]-5-[4-(2-fluoro-3-methylpyridin-4-yl)benzenesulfonyl]-6-hydroxy-2-[(propan-2-yloxy)methyl]-1,4-dihydropyrimidin-4-one], the EC50 is 0.01 to 10 nM.

The same experiment, now with this note: human APJ, intracellular cAMP accumulation; read-out: Human APJ cAMP EC50 Potency range.
As for “5-(4- bromobenzenesulfonyl)- 2-butyl-3- [cyclopropyl(phenyl) methyl]-6-hydroxy-3,4- dihydropyrimidin-4-one [Example 186]”, the EC50 lay within 10 to 100 nM.

For the molecule `CCCCc1nc(=O)c(S(=O)(=O)c2ccc(-c3cncc(F)c3)cc2)c(O)n1[C@@H](CC)c1cccc(Cl)c1` [Example 197, 2-butyl-1-[(1S)-1-(3-chlorophenyl)propyl]-5-[4-(5-fluoropyridin-3-yl)benzenesulfonyl]-6-hydroxy-1,4-dihydropyrimidin-4-one], the EC50 was 0.01 to 10 nM.

For `CCCCc1nc(=O)c(S(=O)(=O)c2ccc(-c3ccccc3OC3CC3)cc2)c(O)n1-c1c(OC)cccc1OC` [Example 29], the EC50 lay in the range of 0.01 to 10 nM.

With `CCCCc1nc(=O)c(S(=O)(=O)c2ccc(-c3nnc(C4CC4)o3)cc2)c(O)n1-c1c(OC)cccc1OC` [Example 117, 2-butyl-5-[4-(5-cyclopropyl-1,3,4-oxadiazol-2-yl)benzenesulfonyl]-1-(2,6-dimethoxyphenyl)-6-hydroxy-1,4-dihydropyrimidin-4-one], the EC50 is 0.01 to 10 nM.

For `CCCCc1nc(=O)c(S(=O)(=O)c2ccc(-n3cc(C)ccc3=O)cc2)c(O)n1-c1c(OC)cccc1OC` [Example 76, 2-butyl-1-(2,6-dimethoxyphenyl)-6-hydroxy-5-[4-(5-methyl-2-oxo-1,2-dihydropyridin-1-yl)benzenesulfonyl]-1,4-dihydropyrimidin-4-one], the 50% effective concentration (EC50) lay in the range of 0.01 to 10 nM.

`CCCCc1nc(=O)c(S(=O)(=O)c2ccc(-c3ccc(F)nc3)cc2)c(O)n1[C@H]1CCc2ccccc21` [Example 163, 2-butyl-1-[(1S)-2,3-dihydro-1H-inden-1-yl]-5-[4-(6-fluoropyridin-3-yl)benzenesulfonyl]-6-hydroxy-1,4-dihydropyrimidin-4-one]: the EC50 fell in the range of 0.01 to 10 nM.

The term EC50 denotes the concentration that produces a half-maximal response.
